Results taken from ChEMBL document CHEMBL1158841, “Neoglycorandomization and chemoenzymatic glycorandomization: two complementary tools for natural product diversification” (J Nat Prod, 2005).

Key:
DU-145 = assay: Cytotoxicity against human DU145 cells after 72 hrs by calcein AM assay; type: functional, cell-based; conditions: DU-145, 72 h, pooled result: one value given for 9 cell lines, strains, targets or settings
[1] = Activity of AknS in presence of AknT

C[C@H]1O[C@@H](O[C@H]2[C@@H](O)C[C@H](O[C@H]3[C@@H](O)C[C@H](O[C@H]4CC[C@@]5(C)[C@H](CC[C@@H]6[C@@H]5CC[C@]5(C)[C@@H](C7=CC(=O)OC7)CC[C@]65O)C4)O[C@@H]3C)O[C@@H]2C)C[C@H](O)[C@@H]1O [DIGITOXIN]
IC50 (DU-145): 440 nM

CC[C@@]1(O)C[C@H](O[C@H]2C[C@H](N(C)C)[C@H](O[C@H]3C[C@H](O)[C@H](O[C@H]4CCC(=O)[C@H](C)O4)[C@H](C)O3)[C@H](C)O2)c2c(cc3c(c2O)C(=O)c2c(O)cccc2C3=O)[C@H]1C(=O)OC
kcat [1]: 0.00367 s⁻¹
